Test results taken from patent US12655116B2, “Substituted isophthalic acid diamides” (Bayer Aktiengesellschaft, priority 2020, dated 2026).

Key:
[1] = tested on: ABUTH; experiment: Pre-emergence herbicidal action against ABUTH; assay type: in vivo, Abutilon theophrasti
How it was run: (§1)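 Herbicidal effect was assessed 3 weeks after treatment by visual comparison with untreated controls, 100% denoting dead plants. Aqueous WP or EC preparations had been applied at 600 to 800 l/ha with 0.2% wetting agent to the soil covering freshly sown seeds.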

[2] = tested on: ALOMY; experiment: Pre-emergence herbicidal action against ALOMY; assay type: in vivo, Alopecurus myosuroides; conditions: pre-emergence
How it was run: as §1

[3] = tested on: AMARE; experiment: Pre-emergence herbicidal action against AMARE; assay type: in vivo, Amaranthus retroflexus
How it was run: as §1

[4] = tested on: AVEFA; experiment: Pre-emergence herbicidal action against AVEFA; assay type: in vivo, Avena fatua; conditions: pre-emergence
How it was run: as §1

[5] = tested on: ECHCG; experiment: Pre-emergence herbicidal action against ECHCG; assay type: in vivo, Echinochloa crus-galli; conditions: 80 g/ha
How it was run: as §1

[6] = tested on: HORMU; experiment: Pre-emergence herbicidal action against HORMU; assay type: in vivo, Hordeum murinum; conditions: 80 g/ha, pre-emergence
From the text: Seeds of monocotyledonous and dicotyledonous weed plants and crop plants are laid out in sandy loam soil in wood-fiber pots and covered with soil. The compounds of the invention, formulated in the form of wettable powders (WP) or as emulsion concentrates (EC), are then applied to the surface of the covering soil in the form of an aqueous suspension or emulsion at a water application rate equivalent to 600 to 800 l/ha, with addition of 0.2% wetting agent. After the treatment, the pots are placed in a greenhouse and kept under good growth conditions for the trial plants. The damage to the test plants is scored visually after a test period of 3 weeks by comparison with untreated controls (herbicidal activity in percent (%): 100% activity=the plants have died, 0% activity=like control plants). […] The tables below illustrate, in an illustrative manner, the post-emergence herbicidal action of the compounds of the invention, the herbicidal activity being stated in percent.

[7] = tested on: MATIN; experiment: Pre-emergence herbicidal action against MATIN; assay type: in vivo, Matricaria inodora
How it was run: as §1

[8] = tested on: POLCO; experiment: Pre-emergence herbicidal action against POLCO; assay type: in vivo, Polygonum convolvulus
How it was run: as §1

[9] = tested on: SETVI; experiment: Pre-emergence herbicidal action against SETVI; assay type: in vivo, Setaria viridis
How it was run: as §1

[10] = tested on: STEME; experiment: Pre-emergence herbicidal action against STEME; assay type: in vivo, Stellaria media
How it was run: as §1

[11] = tested on: VIOTR; experiment: Pre-emergence herbicidal action against VIOTR; assay type: in vivo, Viola tricolor
How it was run: as §1

[12] = tested on: DIGSA; experiment: Pre-emergence herbicidal action against DIGSA; assay type: in vivo, Digitaria sanguinalis
How it was run: as §1

[13] = tested on: ABUTH; experiment: Post-emergence herbicidal action against ABUTH; assay type: in vivo, Abutilon theophrasti; conditions: visual assessment about 3 weeks after treatment vs untreated controls
How it was run: (§2)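 Herbicidal effect was scored visually in percent after about 3 weeks in the greenhouse. Plants had been raised in sandy loam and treated post-emergence at the one-leaf stage with formulated compound at 600 to 800 l/ha water plus 0.2% wetting agent.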

[14] = tested on: ALOMY; experiment: Post-emergence herbicidal action against ALOMY; assay type: in vivo, Alopecurus myosuroides; conditions: dosage 20 g/ha, visual assessment about 3 weeks after treatment vs untreated controls
How it was run: as §2

[15] = tested on: AMARE; experiment: Post-emergence herbicidal action against AMARE; assay type: in vivo, Amaranthus retroflexus; conditions: 20 g/ha, visual assessment about 3 weeks after treatment, 100% = plants have died, 0% = like control plants
How it was run: as §2

[16] = tested on: ECHCG; experiment: Post-emergence herbicidal action against ECHCG; assay type: in vivo, Echinochloa crus-galli
How it was run: as §2

[17] = tested on: MATIN; experiment: Post-emergence herbicidal action against MATIN; assay type: in vivo, Matricaria inodora; conditions: dosage 20 g/ha
How it was run: as §2

[18] = tested on: PHBPU; experiment: Post-emergence herbicidal action against PHBPU; assay type: in vivo, Pharbitis purpurea
How it was run: as §2

[19] = tested on: STEME; experiment: Post-emergence herbicidal action against STEME; assay type: in vivo, Stellaria media
How it was run: as §2

[20] = tested on: DIGSA; experiment: Post-emergence herbicidal action against DIGSA; assay type: in vivo, Digitaria sanguinalis
How it was run: as §2

[21] = tested on: AVEFA; experiment: Post-emergence herbicidal action against AVEFA; assay type: in vivo, Avena fatua; conditions: Avena fatua, 504 h, 20 g/ha, visual assessment about 3 weeks after treatment, 100% = plants have died, 0% = like control plants
How it was run: as §2

[22] = tested on: SETVI; experiment: Post-emergence herbicidal action against SETVI; assay type: in vivo, Setaria viridis; conditions: Setaria viridis, 504 h
How it was run: as §2

[23] = tested on: VERPE; experiment: Post-emergence herbicidal action against VERPE; assay type: in vivo, Veronica persica; conditions: Veronica persica, 504 h, 20 g/ha
How it was run: as §2

[24] = tested on: VIOTR; experiment: Post-emergence herbicidal action against VIOTR; assay type: in vivo, Viola tricolor; conditions: Viola tricolor, 504 h
How it was run: as §2

[25] = 80 g/ha, scored visually after 3 weeks vs untreated controls (100% = plants have died, 0% = like control plants)

CCNC(=O)c1c(C(F)(F)F)ccc(C(=O)Nc2nnc(C)o2)c1Br [Example 6-159]
Pre-emergence action against ABUTH (herbicidal activity) [1, 25]: 100% | Pre-emergence action against ABUTH (herbicidal activity in percent) ([1]; dosage 20 g/ha, scored visually after 3 weeks vs untreated controls, 100% = plants have died, 0% = like control plants): 100% | Pre-emergence action against ALOMY (herbicidal activity) [2, 25]: 80% | Pre-emergence action against AMARE in % ([3]; 20 g/ha, scored visually after 3 weeks vs untreated controls, 100% = plants have died, 0% = like control plants): 100% | Pre-emergence action against AMARE in % [3, 25]: 100% | Pre-emergence action against AVEFA in % ([4]; 80 g/ha): 90% | Pre-emergence action against ECHCG in % [5]: 100% | Pre-emergence action against HORMU in % [6]: 80% | Pre-emergence action against MATIN in % ([7]; dosage 20 g/ha): 100% | Pre-emergence action against MATIN in % ([7]; dosage 80 g/ha): 100% | Pre-emergence action against POLCO in % ([8]; dosage 80 g/ha): 80% | Pre-emergence action against SETVI in % ([9]; dosage 80 g/ha): 100% | Pre-emergence action against STEME in % ([10]; dosage 20 g/ha): 80% | Pre-emergence action against STEME in % ([10]; dosage 80 g/ha): 100% | Pre-emergence action against VIOTR in % ([11]; dosage 80 g/ha): 100% | Pre-emergence action against DIGSA in % ([12]; dosage 20 g/ha): 90% | Pre-emergence action against DIGSA in % ([12]; dosage 80 g/ha): 100% | Post-emergence action against ABUTH in % ([13]; dosage 5 g/ha): 90% | Post-emergence action against ABUTH in % ([13]; dosage 20 g/ha): 100% | Post-emergence action against ALOMY in % [14]: 80% | Post-emergence action at 20 g/ha against AMARE in % [15]: 100% | Post-emergence action against ECHCG in % ([16]; dosage 5 g/ha): 80% | Post-emergence action against ECHCG in % ([16]; dosage 20 g/ha): 90% | Post-emergence action against MATIN in % [17]: 90% | Post-emergence action against PHBPU in % ([18]; dosage 20 g/ha): 80% | Post-emergence action against STEME in % ([19]; 20 g/ha): 90% | Post-emergence action against DIGSA in % ([20]; 5 g/ha): 80% | Post-emergence action against DIGSA ([20]; 20 g/ha): 90%

CCNC(=O)c1c(C(F)(F)F)ccc(C(=O)Nc2nnnn2C)c1Br [Example 1-208]
pest or weed control at 80 g/ha ([1]; Abutilon theophrasti, 504 h, 80 g/ha, scored visually after 3 weeks vs untreated controls (100% = plants have died, 0% = like control plants)): 100% | pest or weed control at 20 g/ha ([1]; Abutilon theophrasti, 504 h, dosage 20 g/ha, scored visually after 3 weeks vs untreated controls, 100% = plants have died, 0% = like control plants, read-out: Pre-emergence action against ABUTH (herbicidal activity in percent)): 100% | pest or weed control at 80 g/ha ([2]; Alopecurus myosuroides, 504 h, 80 g/ha, scored visually after 3 weeks vs untreated controls (100% = plants have died, 0% = like control plants)): 100% | pest or weed control at 20 g/ha ([2]; Alopecurus myosuroides, 504 h, 20 g/ha, scored visually after 3 weeks, 100% = plants have died, 0% = like control plants): 80% | pest or weed control at 20 g/ha ([3]; Amaranthus retroflexus, 504 h, 20 g/ha, scored visually after 3 weeks vs untreated controls, 100% = plants have died, 0% = like control plants): 100% | pest or weed control at 80 g/ha ([3]; Amaranthus retroflexus, 504 h, 80 g/ha, scored visually after 3 weeks vs untreated controls, 100% = plants have died, 0% = like control plants): 100% | pest or weed control at 80 g/ha ([4]; Avena fatua, 504 h, 80 g/ha): 100% | pest or weed control at 20 g/ha ([4]; Avena fatua, 504 h, 20 g/ha, scored visually after 3 weeks, 100% = plants have died, 0% = like control plants): 80% | pest or weed control at 80 g/ha ([5]; Echinochloa crus-galli, 504 h): 100% | pest or weed control at 80 g/ha ([6]; Hordeum murinum, 504 h): 80% | pest or weed control at 20 g/ha ([7]; Tripleurospermum inodorum, 504 h, dosage 20 g/ha): 90% | pest or weed control at 80 g/ha ([7]; Tripleurospermum inodorum, 504 h, dosage 80 g/ha): 100% | pest or weed control at 20 g/ha ([8]; Fallopia convolvulus, 504 h, dosage 20 g/ha): 80% | pest or weed control at 80 g/ha ([8]; Fallopia convolvulus, 504 h, dosage 80 g/ha): 90% | pest or weed control at 20 g/ha ([9]; Setaria viridis, 504 h, dosage 20 g/ha): 100% | pest or weed control at 80 g/ha ([9]; Setaria viridis, 504 h, dosage 80 g/ha): 100% | pest or weed control at 20 g/ha ([10]; Stellaria media, 504 h, dosage 20 g/ha): 100% | pest or weed control at 80 g/ha ([10]; Stellaria media, 504 h, dosage 80 g/ha): 100% | pest or weed control at 20 g/ha ([11]; Viola tricolor, 504 h, dosage 20 g/ha): 100% | pest or weed control at 80 g/ha ([11]; Viola tricolor, 504 h, dosage 80 g/ha): 100% | pest or weed control at 20 g/ha ([12]; Digitaria sanguinalis, 504 h, dosage 20 g/ha): 100% | pest or weed control at 80 g/ha ([12]; Digitaria sanguinalis, 504 h, dosage 80 g/ha): 100% | pest or weed control at 5 g/ha ([13]; Abutilon theophrasti, 504 h, dosage 5 g/ha): 80% | pest or weed control at 20 g/ha ([13]; Abutilon theophrasti, 504 h, dosage 20 g/ha): 90% | pest or weed control at 20 g/ha ([14]; Alopecurus myosuroides, 504 h): 80% | pest or weed control at 20 g/ha ([15]; Amaranthus retroflexus, 504 h): 100% | pest or weed control at 20 g/ha [21]: 90% | pest or weed control at 20 g/ha ([17]; Tripleurospermum inodorum, 504 h): 80% | pest or weed control at 5 g/ha ([18]; Ipomoea purpurea, 504 h, dosage 5 g/ha): 80% | pest or weed control at 20 g/ha ([18]; Ipomoea purpurea, 504 h, dosage 20 g/ha): 90% | pest or weed control at 5 g/ha ([22]; dosage 5 g/ha): 80% | pest or weed control at 20 g/ha ([22]; dosage 20 g/ha): 80% | pest or weed control at 20 g/ha ([19]; Stellaria media, 504 h, 20 g/ha): 90% | pest or weed control at 5 g/ha ([19]; Stellaria media, 504 h, dosage 5 g/ha): 90% | pest or weed control at 20 g/ha [23]: 80% | pest or weed control at 5 g/ha ([24]; 5 g/ha): 80% | pest or weed control at 20 g/ha ([24]; 20 g/ha): 100% | pest or weed control at 5 g/ha ([20]; Digitaria sanguinalis, 504 h, 5 g/ha): 80% | pest or weed control at 20 g/ha ([20]; Digitaria sanguinalis, 504 h, 20 g/ha): 90%
